The text below walks through data of EP2377876A1, “Use of proteins and peptides of the TGF-BETA superfamily for purification and therapeutic methods” (Wyeth LLC, priority 2006, dated 2011).

No end group written: not given here.

The subject of one experiment is BMP-12. The experiment can be described thus: Binding of BMP-12 to peptide-coupled affinity resins in 96 well filter plate. As for the experimental part: The coupled resins, plus an unconjugated resin for use as a control, were suspended in 16% ethanol, 150 mM NaCl, and 20 mM Tris buffer at pH 7.5 at a 25% v/v ratio (e.g., 25% ethanol, 75% Tris buffer). A Tecan liquid-handling robot was employed to aliquot 200 µL of each slurry into one of eight rows of a 96 well polystyrene filter plate (0.45 µm hydrophilic filters, Whatman catalog number 770-1806). Spinning at 1200 g for 3 min removed the liquid phase, leaving 50 µL of wet resin on the filters. The resins were then equilibrated with the loading buffers listed in Table 6 (K is a coefficient characterizing the strength of protein binding to a particular resin in a particular buffer). […] The resins were loaded by transferring 150 µL from the load plate to the filter plate and then incubating 20 min on a shaking platform to facilitate binding. The filter plate was spun down and the filtrate collected in a 96 well UV plate. The protein concentration in the filtrate, or flow-through, was calculated as (A280-A320)/1.3. The filter plate was then washed with 150 µL of 100 mM acetic acid, followed by 150 µL of 4M guanidine-HCl and 50 mM sodium acetate at pH 4.0. The protein concentration was measured in the new filtrate as described above. […] However, for peptides 750 and 751, the binding was strong in 25 mM MES at pH 6 but weak in 50 mM acetic acid with 0.1 M NaCl at pH 3.0, which can allow an efficient binding-elution process without the need for chaotrops or organic reagents. Flow-through and acetic acid elution samples from column 4 of the plate (loaded with MES pH 6) were analyzed on a gel (Figure 14).

The test system of another experiment is BMP-3. As to the kind of experiment: Purification of BMP-3 on immobilized finger 1 peptide column, comparison of ligands. The experiment is classed as binding. Particulars: compared with the BMP-2 mutant peptide. The text has this:
([…] […]) was used to purify BMP-3 as in Example 1. […] Less of the propeptide fragment eluted than in Example 6.

Where [1] appears, read: 50 mM acetic acid with 0.1 M NaCl at pH 3.0.

In the case of “Ac-ELGWDDWIIAPLDYEAYHSEGLK [Peptide 749]”, the “binding of BMP 12 by coupled resin” value in the experiment with BMP-12 (loading buffers 1-5) is recorded as “high affinity”.

Regarding “Ac-LYVDFSDVGWNDWIVAPPGYHAFYSHGEK [Peptide 747]”, the “binding of BMP 12 by coupled resin” value with BMP-12 (loading buffers 1-5) is “high affinity”.

Regarding “Ac-RDLGWQDWIIAPEGYAAFYSDGEK [Peptide 748]”, the “binding of BMP 12 by coupled resin” value with BMP-12 (loading buffers 1-5) is on record as “high affinity”.

For the substance “Ac-SDVGWNDWIVAPPGYHAFYCHGEK [Peptide 750]”, the “binding of BMP 12 by coupled resin” value is given as “strong” with BMP-12 (25 mM MES at pH 6) and “weak” in the experiment on BMP-12 (setting [1]).

For “Ac-SDVGWNDWIVAPPGYHAFYSHGEK [Peptide 751]”, the “binding of BMP 12 by coupled resin” value with BMP-12 (25 mM MES at pH 6) is “strong”; in the experiment on BMP-12 (setting [1]), “weak”.

For the substance “KELGWDDWIIAPLDYEAYHCEGLC [BMP12 Fing1 WT]”, the “effectiveness of immobilized ligand” value in the experiment with BMP-3 is reported as “less effective than the BMP-2 mutant”.
